# Like-named read-outs stand apart in the source and are kept apart here.
# Key:
# [1] = test system: O. gutturosa adult male worms; assay: O. gutturosa adult worm ex vivo assay, MTT/formazan viability; assay type: cell-based, Onchocerca gutturosa; settings: supplement, SD in brackets in the PDF table, read-out: O. gutturosa EC50 (uM) MTT viability inhibition
# Description: (§1) Activity against O. gutturosa adult male worms was determined using reported procedures.[7] The EC50 values were calculated using Microsoft Office Excel (2010) data analysis software. The tested compound is considered active when a motility reduction of ≥50% is observed by comparison to the untreated controls. O. gutturosa adult male worms were obtained postmortem from freshly slaughtered cattle. The worms were dissected from the nuchal ligament connective tissues of naturally infected cattle in Gambia, West Africa; the material was purchased from the International Trypanotolerance Centre, Banjul, from local butchers for use in this study. The adult worms were transferred individually to each well of a sterile 24-well (2 mL) plate (Thermo Fisher Scientific, UK) and maintained for at least 24 h in culture before use. The medium used was a minimum essential medium (MEM) with Earl’s salts and L-glutamine (Life Technologies Ltd., UK) supplemented with 10% heat inactivated newborn calf serum (Life Technologies Ltd., UK), 200 units/mL penicillin, 200 μg/mL streptomycin, and 0.5 μg/mL amphotericin B (Life Technologies Ltd., UK). Only normally active worms were used for the test, and all assays were conducted at 37 °C and 5% CO2. The positive control drug used was Immiticide (melarsomine dihydrochloride, Merial, USA). Known amounts of compounds were solubilized in 1 mL of DMSO. All stock solutions were allowed to stand at room temperature prior to use. The test items (four worms/drug concentration) were compared to untreated controls (six worms) and the positive control (two worms/drug concentration). Drug efficacy was assessed by the measurement of mean worm motility scores on a scale of 0 (immotile) to 10 (maximum) every 24 h, terminating at 120 h, using an Olympus inverted microscope. The results are reported as a percentage of the maximum score obtainable (100%) by calculating the motility index scores. The test drug is considered active when a motility reduction of ≥50% is observed by comparison to the untreated controls. […] In addition, biochemical evaluation of worm viability was assessed using MTT/formazan colorimetry. The MTT assay was carried out after the last motility reading (120 h). Single intact worms were placed in each well of a 48-well plate (Thermo Fisher Scientific, UK) containing 0.5 mL of 0.5 mg/mL MTT (Sigma, UK) in PBS solution and then incubated for 30 min at 37 °C. The worms were removed, blotted carefully, and individually transferred to separate wells of a 96-well microtiter plate, each containing 200 μL of DMSO to solubilize the formazan. After 1 h, the plate was gently agitated to disperse the color evenly and the absorbance value (optical density, OD) of the resulting formazan solution was determined at 490 nm using an absorbance microplate reader (Biotek ELx800, Thermo Fisher Scientific, UK). The results are expressed as the mean OD per drug concentration. Inhibition of formazan formation is correlated with worm damage or death.
# [2] = Liver S9 metabolic stability assay, rat; assay type: in vitro ADME; settings: 3 μM, 60 min
# Description: (§2) Liver S9 Metabolic Stability Assay: Incubations were performed at 37 °C in a Dubnoff Shaking water bath using 2 mL 96-well incubation plates. Rat and human S9 protein concentrations were 0.75 mg/ml and 1.2 mg/ml, respectively. The final concentrations of NADPH, UDPGA, and GSH were 1, 0.5, and 2.5 mM, and the final concentration of PAPS was 0.05 mg/ml. Substrate concentrations were 3µM, incubation time was 60 minutes, and all tests were done in triplicate. The incubation was conducted in 200 mM Tris buffer containing 2 mM magnesium chloride, pH=7.4 and the total incubation volume was 0.5 ml. Samples were analysed via LC-MS/MS and reported as percentage remaining after incubation for 60 minutes. […]
# [3] = test system: O. gutturosa adult male worms; assay: O. gutturosa adult worm ex vivo assay, motility; assay type: cell-based, Onchocerca gutturosa
# Description: as §1
# Data S1. Onchocerca gutturosa adult male worms EC 50 Curves
# Plotted using Graph Pad Prism 7.03, least square original fit, sigmoidal, 4PL
# The measurement of mean worm motility every 24 h, terminating at 120 h, serial 1 in 4 drug dilutions to find
# activity endpoint and produce EC50 values (geomean, n=2) for motility reduction. (4 worms per drug […]
# [4] = LogD measurement (octanol-water); assay type: physicochemical
# Description: LogD Measurement: Measurement of octanol-water distribution coefficient of samples using a […]
# stock solutions for plating. Aqueous Phase: 100mM Buffer, pH=7.4 (0.1M Potassium phosphate buffer, diluted from Sigma 1M P3619-1GA to 0.1 M with MilliQ water), pH=2.2 (0.1M- NaCl pH adjusted with 0.1N HCL), pH=6.8 (0.1M - KH2PO4/K2HPO4), pH=5 (4 .04g of NaOH (Pellets), 8.65g of Glacial Acetic Acid, 11.874g of NaCl. In in 1 liter water. Adjusted to pH to 5 with either 1N NaOH or 1N HCl); Organic Phase: 1-Octanol (O021). Sample Concentration:
# 1000uM, […] 10 mM DMSO stock solution diluted in […] of organic Phase and […] of aqueous Phase. DMSO content: 10%. The controls were plated from the standard 10 mM DMSO stock and run on the standard concentration ([…]) range of the assay. Incubation time:
# Sonication for 30 minutes followed by 24 hours shaking at 750 rpm in 96 deep well plate (VWR
# [5] = Kinetic solubility measurement; assay type: physicochemical; settings: 10 mM DMSO stock solutions
# Description: Kinetic Solubility Measurement: The standard kinetic solubility assay runs on […] concentration range using 10 mM DMSO stock solutions for plating. Single point calibration assay runs in duplicates. Concentration of standards: […] DMSO solutions prepared by diluting 10 mM stock, solution with DMSO. Concentration of samples: 200 µM, 4 µl 10 mM DMSO stock solution diluted with the appropriate buffer to […]. DMSO content:
# 2%. Buffers: pH=7.4 (0.1M Potassium phosphate buffer, diluted from Sigma 1M P3619-1GA to 0.1 M with MilliQ water), pH=2.2 (0.1M- NaCl pH adjusted with 0.1N HCL), pH=6.8 (0.1M - KH2PO4/K2HPO4), pH=5 (4 .04g of NaOH (Pellets), 8.65g of Glacial Acetic Acid, 11.874g of NaCl. In in 1 liter water. Adjusted to pH to 5 with either 1N NaOH or 1N HCl). The controls were plated from the standard 10 mM DMSO stock and run on the standard concentration (200µM) range of the assay. Incubation time: 24 hours shaking at […] in Millipore Multiscreen HTS filter plate for Aqueous Solubility Assay (MSSLBPC50), on room temperature.
# After incubation time filtration with positive pressure manifold was performed. […]
# [6] = Liver S9 metabolic stability assay, human; assay type: in vitro ADME; settings: 3 μM, 60 min
# Description: as §2
# [7] = Onchocerca gutturosa, read-out: O. gutturosa EC50 μM (SD), ex vivo adult worm motility reduction, SD in brackets
# [8] = Onchocerca gutturosa, read-out: O. gutturosa EC50 (uM) motility inhibition, supplement, SD in brackets in the PDF table
# [9] = supplement, read-out: measured logD
molecule,measurement,setting,value
CC(C)Oc1ccc(-c2nsc(Nc3cc(C(F)(F)F)c(C(C)C)cn3)n2)nc1 [Compound 37],EC50,[1]; Onchocerca gutturosa,0.3 µM
same,Rat S9 metabolic stability,[2],100 % remaining
same,EC50,[3]; [7],0.05 µM
same,EC50,[3]; [8],0.053 µM
same,logD at 24 h,"[4]; pH 7.4, read-out: logD",2.8
same,logD at 24 h,[4]; [9],2.8
same,solubility kinetic at 24 h,[5],1.00 µM
same,Human S9 metabolic stability,[6],100 % remaining
"CNC(=O)c1cccnc1Nc1nc(-c2ccc(OC(C)C)cn2)ns1 [Compound 60, 2-((3-(5-Isopropoxypyridin-2-yl)-1,2,4-thiadiazol-5-yl)amino)-N-methylnicotinamide]",EC50,[1]; Onchocerca gutturosa,2.4 µM
same,EC50,[3]; [7],0.67 µM
same,logD at 24 h,"[4]; pH 7.4, read-out: logD",1.8
same,logD at 24 h,[4]; [9],1.8
same,solubility kinetic at 24 h,[5],10.2 µM
"CC(C)c1cnc(Nc2nc(-c3ncccc3OC3CC3)ns2)cc1C(F)(F)F [Compound 38, 3-(3-Cyclopropoxypyridin-2-yl)-N-(5-isopropyl-4-(trifluoromethyl)pyridin-2-yl)-1,2,4-thiadiazol-5-amine]",EC50,[1]; Onchocerca gutturosa,< 0.02 µM
same,EC50,[1],< 0.015 µM
same,Rat S9 metabolic stability,[2],93 % remaining
same,EC50,[3]; [7],0.02 µM
same,EC50,[3]; [8],0.017 µM
same,logD at 24 h,"[4]; pH 7.4, read-out: logD",2.95
same,logD at 24 h,[4]; [9],2.95
same,solubility kinetic at 24 h,[5],1.03 µM
same,Human S9 metabolic stability,[6],100 % remaining
"3-(3-Methyl-2-pyridyl)-N-(5-pyrrolidin-1-yl-2-pyridyl)-1,2,4-thiadiazol-5-amine [Compound 21]",EC50,[1],0.14 µM
same,Rat S9 metabolic stability,[2],61 % remaining
same,EC50,"[3]; adult worm motility, bound stated, read-out: O. gutturosa EC50",< 0.1 µM
same,EC50,"[3]; supplement, SD in brackets in the PDF table, read-out: O. gutturosa EC50 (uM) motility inhibition",0.044 µM
same,logD,[4]; pH 7.4,2.65
same,measured logD,[4]; supplement,2.65
same,solubility kinetic at 24 h,[5],2.17 µM
same,Human S9 metabolic stability,[6],86 % remaining
"Cc1cccnc1Nc1nc(-c2ccc(OC3CCOCC3)cn2)no1 [Compound 6, N-(3-Methylpyridin-2-yl)-3-(5-((tetrahydro-2H-pyran-4-yl)oxy)pyridin-2-yl)-1,2,4-oxadiazol-5-amine]",EC50,[1]; Onchocerca gutturosa,4.1 µM
same,EC50,[1],4.06 µM
same,Rat S9 metabolic stability,[2],85 % remaining
same,EC50,[3]; [7],0.07 µM
same,EC50,[3]; [8],0.072 µM
same,logD at 24 h,[4]; [9],1.7
same,solubility kinetic at 24 h,[5],57.5 µM
same,Human S9 metabolic stability,[6],98 % remaining
"COc1cccnc1Nc1nc(-c2cc(C)ccn2)ns1 [Compound 29, N-(3-Methoxy-2-pyridyl)-3-(4-methyl-2-pyridyl)-1,2,4-thiadiazol-5-amine]",EC50,[1]; Onchocerca gutturosa,0.88 µM
same,Rat S9 metabolic stability,[2],70 % remaining
same,EC50,[3]; [7],0.12 µM
same,EC50,[3]; [8],0.121 µM
same,logD at 24 h,"[4]; pH 7.4, read-out: logD",2.1
same,logD at 24 h,[4]; [9],2.1
same,solubility kinetic at 24 h,[5],26.5 µM
same,Human S9 metabolic stability,[6],72 % remaining
CC(=O)N(C)c1cc(C(F)(F)F)cnc1Nc1nc(-c2ccccn2)ns1 [Compound 53],EC50,[1]; Onchocerca gutturosa,0.15 µM
same,EC50,[3]; [7],0.05 µM
same,EC50,[3]; [8],0.047 µM
same,logD at 24 h,"[4]; pH 7.4, read-out: logD",2.2
same,logD at 24 h,[4]; [9],2.2
same,solubility kinetic at 24 h,[5],4.05 µM
"Cc1cccnc1Nc1nc(-c2ccc(C#N)cn2)ns1 [Compound 13, 6-(5-((3-Methylpyridin-2-yl)amino)-1,2,4-thiadiazol-3-yl)nicotinonitrile]",EC50,[1]; Onchocerca gutturosa,20 µM
same,Rat S9 metabolic stability,[2],73 % remaining
same,EC50,[3]; [7],5.8 µM
same,logD at 24 h,"[4]; pH 7.4, read-out: logD",2.75
same,logD at 24 h,[4]; [9],2.75
same,solubility kinetic at 24 h,[5],0.55 µM
same,Human S9 metabolic stability,[6],66 % remaining
Cc1cccnc1Nc1nc(-c2cc(C3CCN(C)CC3)ccn2)ns1 [Compound 22],EC50,[1]; Onchocerca gutturosa,13.1 µM
same,Rat S9 metabolic stability,[2],81 % remaining
same,EC50,[3]; [7],0.2 µM
same,EC50,[3]; [8],0.198 µM
same,logD at 24 h,"[4]; pH 7.4, read-out: logD",2
same,logD at 24 h,[4]; [9],2
same,solubility kinetic at 24 h,[5],184 µM
same,Human S9 metabolic stability,[6],78 % remaining
"Cc1cccnc1N(C)c1nc(-c2ccc(OC(C)C)cn2)ns1 [Compound 42, 3-(5-Isopropoxypyridin-2-yl)-N-methyl-N-(3-methylpyridin-2-yl)-1,2,4-thiadiazol-5-amine]",EC50,[1]; Onchocerca gutturosa,0.36 µM
same,EC50,[1],0.357 µM
same,Rat S9 metabolic stability,[2],81 % remaining
same,EC50,[3]; [7],0.2 µM
same,EC50,[3]; [8],0.21 µM
same,EC50,"[3]; read-out: O. gutturosa EC50 (uM) motility inhibition, supplement, SD in brackets in the PDF table",0.212 µM
same,logD at 24 h,"[4]; pH 7.4, read-out: logD",2.35
same,logD at 24 h,[4]; [9],2.35
same,solubility kinetic at 24 h,[5],33.5 µM
same,Human S9 metabolic stability,[6],96 % remaining
"CC(C)Oc1ccc(-c2nsc(N(C)c3ncccc3C(C)C)n2)nc1 [Compound 44, 3-(5-Isopropoxypyridin-2-yl)-N-(3-isopropylpyridin-2-yl)-N-methyl-1,2,4-thiadiazol-5-amine]",EC50,[1]; Onchocerca gutturosa,1.4 µM
same,Rat S9 metabolic stability,[2],4 % remaining
same,EC50,[3]; [7],1.67 µM
same,logD at 24 h,"[4]; pH 7.4, read-out: logD",3
same,logD at 24 h,[4]; [9],3
same,solubility kinetic at 24 h,[5],121 µM
same,Human S9 metabolic stability,[6],32 % remaining
"CN1CCC(Oc2ccc(Nc3nc(-c4ccccn4)ns3)nc2)CC1 [Compound 36, N-(5-((1-Methylpiperidin-4-yl)oxy)pyridin-2-yl)-3-(pyridin-2-yl)-1,2,4-thiadiazol-5-amine]",Rat S9 metabolic stability,[2],99 % remaining
same,EC50,[3]; [7],1.12 µM
same,logD at 24 h,"[4]; pH 7.4, read-out: logD",1.7
same,logD at 24 h,[4]; [9],1.7
same,solubility kinetic at 24 h,[5],193 µM
same,Human S9 metabolic stability,[6],88 % remaining
CC(C)Oc1ccc(-c2nsc(Nc3ncc(C(F)(F)F)cc3C(=O)N(C)C)n2)nc1 [Compound 57],EC50,[1]; Onchocerca gutturosa,1.3 µM
same,EC50,[3]; [7],0.58 µM
same,EC50,[3]; [8],0.578 µM
same,logD at 24 h,"[4]; pH 7.4, read-out: logD",3.2
same,logD at 24 h,[4]; [9],3.2
same,solubility kinetic at 24 h,[5],3.27 µM
